# From publication PMC6516726 (ACS Catalysis, 2018)
# Read-outs that look alike come from different tables or passages of the source.
# Columns and labels:
# L25I PETNR = L25I PETNR (Enterobacter cloacae, UniProt P71278, L26I); conditions: for kobs1 / A2 (amplitude of kobs2 out of total absorbance change) / kobs2: 10 mM NADPH or 25 mM NADH, pH 7.0
# WT PETNR [1] = target: T1, WT PETNR (Enterobacter cloacae, UniProt P71278); experiment: Stopped-flow FMN reduction (reductive half-reaction, hydride transfer) of WT PETNR by coenzyme; conditions: for kobs1 / A2 (amplitude of kobs2 out of total absorbance change) / kobs2: 10 mM NADPH or 25 mM NADH, pH 7.0
# L25A PETNR = L25A PETNR (Enterobacter cloacae, UniProt P71278, L26A); conditions: for A2 (amplitude of kobs2 out of total absorbance change) / kobs1 / kobs2: pH 7.0
# WT PETNR [2] = target: T1, WT PETNR; experiment: pH dependence of FMN reduction of WT PETNR in MTEN buffer; type: biochemical, Enterobacter Cloacae PB2; design: made in house
# Protocol: (R)-[4-2H]-NADPH at pH 6, pH 7 and pH9 (A) and the corresponding temperature dependencies of the observed primary kinetic isotope effects (B). The measurements were performed in MTEN buffer (50 mM MES, 25 mM Tris, 25 mM ethanola-mine, and 100 mM NaCl), which has a useful buffering capacity and minimal change in ionic strength over the pH range 6-9 in which PETNR is stable; we attempted testing PETNR in pH 5 as well, but the enzyme is unstable at this pH. The observed rate constants of FMN reduction at pH 7 in MTEN buffer are essentially the same to those measured in 50 mM potassium phosphate buffer, pH 7 and similar observation are valid for the KIEs values (Table S3).The rate of FMN reduction is essentially insensitive to pH across the whole temperature range (5-40 °C), and also that KIEs values are essentially not affected by changes in pH (the rate of FMN reduction by (R)-[4-2H]-NADPH is independent of pH as well across all temperatures studied; see Table S3 for extracted thermodynamic parameters). Although these experiments cannot completely exclude any kinetic […]
# of H-transfer and protonation (which would lead to pH-dependent rates) which makes it very likely that the observed rate are reporting directly on the H-transfer step.
# Table S3. Extracted Thermodynamic Parameters from pH Dependence Studies.
# (kJ mol-1) (J mol-1 K-1) (kJ mol-1 K-1)
# [3] = 25 °C, 50 mM potassium phosphate pH 7.0, 20 μM enzyme
# [4] = 25 °C, 50 mM potassium phosphate pH 7.0, 20 μM enzyme, fast phase
# [5] = T0 = 298 K, fit of kobs1 (5–40 °C) to eq 1
# [6] = 5 °C, 10 mM NADPH or 25 mM NADH
# [7] = 10 °C, 10 mM NADPH or 25 mM NADH
# [8] = 20 °C, 10 mM NADPH or 25 mM NADH
# [9] = 25 °C, 10 mM NADPH or 25 mM NADH
# [10] = 30 °C, 10 mM NADPH or 25 mM NADH
# [11] = 35 °C, 10 mM NADPH or 25 mM NADH
# [12] = 40 °C, third phase, 10 mM NADPH or 25 mM NADH
# [13] = 40 °C, 10 mM NADPH or 25 mM NADH
# Sequence of L25A PETNR (P71278 entry or part of it L26A): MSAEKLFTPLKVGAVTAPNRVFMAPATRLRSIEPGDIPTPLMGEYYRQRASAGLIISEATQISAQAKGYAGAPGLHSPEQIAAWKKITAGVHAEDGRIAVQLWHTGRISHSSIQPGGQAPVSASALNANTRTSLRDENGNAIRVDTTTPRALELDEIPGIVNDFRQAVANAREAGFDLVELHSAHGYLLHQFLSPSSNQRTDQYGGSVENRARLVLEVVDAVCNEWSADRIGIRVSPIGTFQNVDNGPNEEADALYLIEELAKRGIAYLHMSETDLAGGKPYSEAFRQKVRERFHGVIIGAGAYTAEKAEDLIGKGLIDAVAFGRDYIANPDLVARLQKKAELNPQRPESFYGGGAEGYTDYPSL
# Sequence of L25I PETNR (P71278 entry or part of it L26I): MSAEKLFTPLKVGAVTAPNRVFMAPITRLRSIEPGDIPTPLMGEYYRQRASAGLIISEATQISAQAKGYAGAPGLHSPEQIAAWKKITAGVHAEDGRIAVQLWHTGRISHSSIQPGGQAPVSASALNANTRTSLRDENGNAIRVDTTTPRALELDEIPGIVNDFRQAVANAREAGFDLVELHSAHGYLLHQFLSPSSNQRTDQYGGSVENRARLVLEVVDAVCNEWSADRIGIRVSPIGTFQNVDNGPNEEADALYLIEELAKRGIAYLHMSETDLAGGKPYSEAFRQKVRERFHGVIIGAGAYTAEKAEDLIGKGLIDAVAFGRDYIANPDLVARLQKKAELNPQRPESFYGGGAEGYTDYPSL
# T1 sequence (P71278 entry or part of it): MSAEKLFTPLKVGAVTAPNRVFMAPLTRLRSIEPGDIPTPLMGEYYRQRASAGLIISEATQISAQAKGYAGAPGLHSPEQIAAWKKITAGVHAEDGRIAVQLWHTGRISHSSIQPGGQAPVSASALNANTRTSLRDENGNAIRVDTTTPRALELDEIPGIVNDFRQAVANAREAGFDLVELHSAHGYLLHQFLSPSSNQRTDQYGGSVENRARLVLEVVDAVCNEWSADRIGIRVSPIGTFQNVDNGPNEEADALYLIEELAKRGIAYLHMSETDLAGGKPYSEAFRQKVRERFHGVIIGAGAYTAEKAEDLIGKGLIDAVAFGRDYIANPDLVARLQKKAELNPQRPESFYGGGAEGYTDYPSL
structure (smiles),measurement,setting,value
NC(=O)C1=CN([C@@H]2O[C@H](COP(=O)(O)OP(=O)(O)OC[C@H]3O[C@@H](n4cnc5c(N)ncnc54)[C@H](OP(=O)(O)O)[C@@H]3O)[C@@H](O)[C@H]2O)C=CC1 [NADPH],kobs1,L25I PETNR; 5 °C,10.12 ± 0.04 s⁻¹
same,kobs1,L25I PETNR; 10 °C,13.47 ± 0.06 s⁻¹
same,kobs1,L25I PETNR; 15 °C,18.07 ± 0.05 s⁻¹
same,A2 (amplitude of kobs2 out of total absorbance change),L25I PETNR; 20 °C,3.28 ± 1.62%
same,kobs1,L25I PETNR; 20 °C,24.33 ± 0.52 s⁻¹
same,kobs2,L25I PETNR; 20 °C,2.25 ± 2.63 s⁻¹
same,KS,L25I PETNR; [3],130 ± 8 µM
same,kred,L25I PETNR; [4],29.49 ± 0.49 s^–1
same,kobs1,L25I PETNR; 25 °C,30.24 ± 0.42 s⁻¹
same,kobs1,L25I PETNR; 30 °C,36.74 ± 0.28 s⁻¹
same,kobs2,L25I PETNR; 30 °C,2.57 ± 0.62 s⁻¹
same,A2 (amplitude of kobs2 out of total absorbance change),L25I PETNR; 35 °C,5.72 ± 0.36%
same,A2 (amplitude of kobs2 out of total absorbance change),L25I PETNR; 40 °C,10.89 ± 0.63%
same,kobs1,L25I PETNR; 40 °C,49.82 ± 1.14 s⁻¹
same,ΔCp^⧧,L25I PETNR; [5],–0.43 ± 0.07 kJ mol^–1 K^–1
same,ΔHT0^⧧,L25I PETNR; [5],30.4 ± 0.6 kJ mol^–1
same,ΔST0^⧧,L25I PETNR; [5],–114.9 ± 2.0 J mol^–1 K^–1
same,kobs1,WT PETNR [1]; 5 °C,11.31 ± 0.09 s⁻¹
same,kobs1,WT PETNR [1]; 10 °C,15.23 ± 0.15 s⁻¹
same,kobs1,WT PETNR [1]; 15 °C,20.32 ± 0.25 s⁻¹
same,kobs1,WT PETNR [1]; 20 °C,26.28 ± 0.31 s⁻¹
same,KS,WT PETNR [1]; [3],103 ± 4 µM
same,kred,WT PETNR [1]; [4],33.43 ± 0.22 s^–1
same,kobs1,WT PETNR [1]; 25 °C,33.74 ± 0.46 s⁻¹
same,A2 (amplitude of kobs2 out of total absorbance change),WT PETNR [1]; 35 °C,1.41 ± 0.23%
same,kobs1,WT PETNR [1]; 35 °C,50.46 ± 0.75 s⁻¹
same,kobs2,WT PETNR [1]; 35 °C,1.19 ± 0.92 s⁻¹
same,A2 (amplitude of kobs2 out of total absorbance change),WT PETNR [1]; 40 °C,2.29 ± 0.35%
same,kobs1,WT PETNR [1]; 40 °C,58.49 ± 0.50 s⁻¹
same,kobs2,WT PETNR [1]; 40 °C,1.09 ± 0.16 s⁻¹
same,ΔCp^⧧,WT PETNR [1]; [5],–0.50 ± 0.05 kJ mol^–1 K^–1
same,ΔHT0^⧧,WT PETNR [1]; [5],30.4 ± 0.3 kJ mol^–1
same,ΔST0^⧧,WT PETNR [1]; [5],–113.9 ± 0.9 J mol^–1 K^–1
same,A2 (amplitude of kobs2 out of total absorbance change),L25A PETNR; [6],2.93 ± 0.55%
same,kobs1,L25A PETNR; [6],19.18 ± 0.22 s⁻¹
same,A2 (amplitude of kobs2 out of total absorbance change),L25A PETNR; [7],2.70 ± 0.56%
same,kobs1,L25A PETNR; [7],26.03 ± 0.17 s⁻¹
same,kobs1,"L25A PETNR; 15 °C, 10 mM NADPH or 25 mM NADH",34.93 ± 1.25 s⁻¹
same,A2 (amplitude of kobs2 out of total absorbance change),L25A PETNR; [8],3.58 ± 0.47%
same,kobs2,L25A PETNR; [8],2.42 ± 0.48 s⁻¹
same,increase in KS vs WT PETNR,L25A PETNR; 25 °C,2 fold
same,kred,L25A PETNR; [4],55.75 ± 0.35 s^–1
same,"rate of H-transfer, faster than WT PETNR","L25A PETNR; 25 °C, kred vs WT",60%
same,A2 (amplitude of kobs2 out of total absorbance change),L25A PETNR; [9],4.73 ± 0.26%
same,kobs1,L25A PETNR; [9],53.77 ± 1.15 s⁻¹
same,kobs2,L25A PETNR; [9],1.54 ± 0.45 s⁻¹
same,A2 (amplitude of kobs2 out of total absorbance change),L25A PETNR; [10],7.50 ± 0.21%
same,kobs1,L25A PETNR; [10],59.63 ± 2.29 s⁻¹
same,A2 (amplitude of kobs2 out of total absorbance change),L25A PETNR; [11],16.48 ± 0.53%
same,kobs1,L25A PETNR; [11],68.39 ± 8.69 s⁻¹
same,kobs2,L25A PETNR; [11],0.51 ± 0.17 s⁻¹
same,A3 (amplitude of third phase),L25A PETNR; [12],19.34 ± 0.54%
same,kobs3,L25A PETNR; [12],3.55 ± 1.03
same,A2 (amplitude of kobs2 out of total absorbance change),L25A PETNR; [13],25.54 ± 0.91%
same,kobs1,L25A PETNR; [13],71.16 ± 6.56 s⁻¹
same,kobs2,L25A PETNR; [13],0.26 ± 0.06 s⁻¹
same,total absorbance change attributed to kobs2,"L25A PETNR; 40 °C, sum of two slow phases (kobs2 and kobs3)",~40%
same,ΔCp^⧧,L25A PETNR; [5],–0.92 ± 0.12 kJ mol^–1 K^–1
same,ΔHT0^⧧,L25A PETNR; [5],23.3 ± 1.2 kJ mol^–1
same,ΔST0^⧧,L25A PETNR; [5],–133.7 ± 4.1 J mol^–1 K^–1
same,ΔCp⧧,"WT PETNR [2]; pH 6, MTEN buffer",-0.58 ± 0.10 kJ mol-1 K-1
same,ΔHT0⧧,"WT PETNR [2]; pH 6, MTEN buffer",6.5 ± 0.14 kcal/mol
same,ΔST0⧧,"WT PETNR [2]; pH 6, MTEN buffer",-124.3 ± 2.0 J mol-1 K-1
same,ΔCp⧧,"WT PETNR [2]; pH 7, MTEN buffer",-0.61 ± 0.08 kJ mol-1 K-1
same,ΔHT0⧧,"WT PETNR [2]; pH 7, MTEN buffer",6.6 ± 0.17 kcal/mol
same,ΔST0⧧,"WT PETNR [2]; pH 7, MTEN buffer",-122.7 ± 1.6 J mol-1 K-1
same,ΔCp⧧,"WT PETNR [2]; pH 9, MTEN buffer",-0.45 ± 0.12 kJ mol-1 K-1
same,ΔHT0⧧,"WT PETNR [2]; pH 9, MTEN buffer",6.91 ± 0.17 kcal/mol
same,ΔST0⧧,"WT PETNR [2]; pH 9, MTEN buffer",-118.6 ± 2.3 J mol-1 K-1
